Results: patent US20220259213A1, “PYRROLOPYRAZOLE DERIVATIVES, PREPARATION METHOD THEREOF AND APPLICATION THEREOF IN MEDICINE” (SHANGHAI MEDICILON INC., priority 2019, published 2022)

What follows are compounds tested against T1, H+/K+ATPase (Oryctolagus cuniculus, UniProt P27112) (assay: determination of compounds' inhibition of H+/K+ATPase enzyme activity (malachite green)). Details: enzyme extracted from rabbit stomach mucosa; 500 μM ATP; pH 6.5; 37° C.; OD 620 nm; read-out: IC50(μM) inhibition rate (IC50) of H+/K+ATPase enzyme activity.
T1 construct: The stomach tissue of the rabbit was separated; from tissue; host or cells: rabbit stomach (fundus) mucosa; membrane pellet obtained by differential and Ficoll centrifugation
Type: biochemical
Protocol: Test example: determination of compounds' inhibition of H+/K+ATPase enzyme activity
The following experiment is used to determine the inhibitory effect of the compound of the present invention on the H+/K+ATPase enzyme activity.
Enzyme working solution: titrating the enzyme, diluting the enzyme with buffer solution 1, and taking 5 μl of the diluted solution into 50 μl reaction system.
ATP solution: 100 mM ATP was diluted to 5 mM with no K+buffer, and 5 μl of the diluted solution was added to the 50 μl reaction system, that is, the final concentration of ATP was 500 μM.
MLG color development liquid: 0.12% MLG, 7.5% ammonium molybdate, 11% Tween-20 was mixed as 100:25:2, and adding 15 μl of the mixture into each well during detection.
Buffer 1: 5 mM Tris-HCl pH 6.5, 5 mM magnesium chloride (magnesium chloride), 10 μM valinomycin (valinomycin).
Buffer 2: 50 mM Tris-HCl pH 6.5, 5mM magnesium chloride (magnesium chloride), 10 μM valinomycin (valinomycin), 20 mM KCl.
3.1. H^+/K^+ ATPase enzyme extraction
(1) The stomach tissue of the rabbit was separated, and the blood was washed with tap water, food residue.
(5) After homogenization, if there were larger tissue particles, they could be removed by centrifugation (600 g, 10 min), and then the supernatant was transfered to a clean centrifuge tube. After centrifugation at 20000 g for 30 minutes, then the supernatant was transferred to a clean centrifuge tube at 100000 g for 90 minutes, and the precipitate was collected.
(7) Resuspending the precipitate with homogenization buffer, blowing uniformly, and the protein concentration was measured by Bradford. Freezing in tubes at −80° C. for later use.
3.2. H+/K+ATPase activity experiment
(1) Adding 35 μl of reaction buffer to each experimental well, and then adding 35 μl of buffer 1.
(2) Adding 5 μl buffer 1 containing 10% DMSO to the whole enzyme and buffer well.
(3) Adding 5 μl of 10× compound working solution to the compound well and mixing well.
(4) Adding 5 μl of buffer 1 to the buffer well.
(5) Adding 5 μl of 10× enzyme working solution to the remaining wells, mixing and incubating at 37° C. for 30minutes.
(6) Adding 5 μl of 10×ATP working solution to all experimental wells, mixing and incubating at 37° C. for 20 min.
(7) Adding 15 μl MLG chromogenic solution to all experimental wells, and uniformly mixing and incubating at room temperature for 5-30 min.
(8) The reading number of 620 nm was detected by an M5 instrument.
The inhibition rate is calculated with the following formula:
Inhibition rate (IC50)=[OD (sample well)−OD (full enzyme well containing potassium chloride)]/[(OD (full enzyme well containing potassium chloride)−(OD (full enzyme well without potassium chloride)]×100%

T1 sequence (P27112 whole entry): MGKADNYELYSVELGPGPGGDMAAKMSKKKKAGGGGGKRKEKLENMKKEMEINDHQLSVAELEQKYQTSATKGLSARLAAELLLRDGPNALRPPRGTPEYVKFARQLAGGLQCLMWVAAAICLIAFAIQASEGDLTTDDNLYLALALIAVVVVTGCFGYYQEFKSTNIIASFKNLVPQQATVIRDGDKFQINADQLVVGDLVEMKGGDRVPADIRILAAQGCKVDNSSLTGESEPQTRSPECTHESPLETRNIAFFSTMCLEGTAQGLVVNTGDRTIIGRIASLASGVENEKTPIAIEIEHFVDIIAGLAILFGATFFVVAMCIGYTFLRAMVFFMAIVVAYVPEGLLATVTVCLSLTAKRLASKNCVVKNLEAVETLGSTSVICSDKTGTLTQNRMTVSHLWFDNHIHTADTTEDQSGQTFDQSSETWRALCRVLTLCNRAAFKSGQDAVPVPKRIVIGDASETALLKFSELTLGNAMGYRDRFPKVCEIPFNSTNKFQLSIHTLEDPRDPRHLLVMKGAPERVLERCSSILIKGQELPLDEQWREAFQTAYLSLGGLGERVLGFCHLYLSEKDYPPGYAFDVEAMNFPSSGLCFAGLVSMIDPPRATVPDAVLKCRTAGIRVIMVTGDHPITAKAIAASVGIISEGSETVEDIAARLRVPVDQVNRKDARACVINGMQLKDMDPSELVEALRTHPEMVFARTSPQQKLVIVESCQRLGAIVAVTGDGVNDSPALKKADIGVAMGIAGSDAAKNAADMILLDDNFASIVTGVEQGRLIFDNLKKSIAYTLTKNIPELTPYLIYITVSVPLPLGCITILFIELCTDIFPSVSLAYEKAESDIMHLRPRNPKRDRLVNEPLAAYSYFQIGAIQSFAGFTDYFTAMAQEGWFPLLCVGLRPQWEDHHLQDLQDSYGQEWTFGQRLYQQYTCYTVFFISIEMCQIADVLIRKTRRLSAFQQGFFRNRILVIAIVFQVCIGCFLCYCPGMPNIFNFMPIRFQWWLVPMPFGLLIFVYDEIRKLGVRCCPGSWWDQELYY
T1 sequence (P18597 whole entry partner): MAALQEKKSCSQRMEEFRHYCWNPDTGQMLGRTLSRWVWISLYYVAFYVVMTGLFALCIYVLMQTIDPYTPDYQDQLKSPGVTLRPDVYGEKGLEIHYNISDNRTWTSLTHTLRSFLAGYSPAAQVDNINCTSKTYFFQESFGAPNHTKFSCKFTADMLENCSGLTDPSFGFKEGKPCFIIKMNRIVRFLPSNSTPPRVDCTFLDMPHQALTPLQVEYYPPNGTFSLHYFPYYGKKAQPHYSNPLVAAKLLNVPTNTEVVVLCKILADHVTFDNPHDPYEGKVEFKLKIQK

SMILES	IC50
CN1Cc2nn(Cc3cccnc3)c(-c3ccc4c(c3)CCO4)c2C1 [Example 1, 3-(2,3-dihydrobenzofuran-5-methyl)-5-methyl-2-(pyridin-3-ylmethyl)-2,4,5,6-tetrahydropyrrole[3,4-c]pyrazole]	3.55 µM
CN1Cc2nn(Cc3cccnc3)c(-c3ccc4occc4c3)c2C1 [Example 2, 3-(benzofuran-5-yl)-5-methyl-2-(pyridin-3-ylmethyl)-2,4,5,6-tetrahydropyrrole[3,4-c]pyrazole]	1.38 µM
CN1Cc2nn(Cc3cccnc3)c(-c3ccc4[nH]cnc4c3)c2C1 [Example 3, (5-methyl-2-(pyridin-3-ylmethyl)-2,4,5,6-tetrahydropyrrole[3,4-c]pyrazol-3-yl)-1H-benzo[d]imidazole]	24 µM
CN1Cc2nn(Cc3cccnc3)c(-c3ccccc3F)c2C1 [Example 4, (2-fluorophenyl)-5-methyl-2-(pyridin-3-ylmethyl)-2,4,5,6-tetrahydropyrrole[3,4-c]pyrazole]	0.674 µM
COc1ccc(Cn2nc3c(c2-c2ccccc2F)CN(C)C3)cn1 [Example 5, 3-(2-fluorobenzeneyl)-2-((6-methoxypyridin-3-yl)methyl)-5-methyl-2,4,5,6-tetrahydropyrrolo[3,4-c]pyrazole]	0.365 µM
